Target: T1, c-Met kinase (recombinant c-Met) (Homo sapiens, UniProt P08581)
T1 construct: 0.27 nM recombinant c-Met
Assay: In vitro kinase assay I (homogeneous time-resolved fluorescence tyrosine kinase assay)
Format: biochemical
How it was run: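 Biotinylated peptide (0.5 μM) phosphorylated by 0.2 nM recombinant c-Met with 50 μM MgATP, 60 min at room temperature, pH 7.4, 5% DMSO. EDTA stop; HTRF read with Eu-anti-phosphotyrosine antibody and streptavidin-APC. IC50 from 4-parameter logistic fit.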

T1 sequence (P08581 25-1390): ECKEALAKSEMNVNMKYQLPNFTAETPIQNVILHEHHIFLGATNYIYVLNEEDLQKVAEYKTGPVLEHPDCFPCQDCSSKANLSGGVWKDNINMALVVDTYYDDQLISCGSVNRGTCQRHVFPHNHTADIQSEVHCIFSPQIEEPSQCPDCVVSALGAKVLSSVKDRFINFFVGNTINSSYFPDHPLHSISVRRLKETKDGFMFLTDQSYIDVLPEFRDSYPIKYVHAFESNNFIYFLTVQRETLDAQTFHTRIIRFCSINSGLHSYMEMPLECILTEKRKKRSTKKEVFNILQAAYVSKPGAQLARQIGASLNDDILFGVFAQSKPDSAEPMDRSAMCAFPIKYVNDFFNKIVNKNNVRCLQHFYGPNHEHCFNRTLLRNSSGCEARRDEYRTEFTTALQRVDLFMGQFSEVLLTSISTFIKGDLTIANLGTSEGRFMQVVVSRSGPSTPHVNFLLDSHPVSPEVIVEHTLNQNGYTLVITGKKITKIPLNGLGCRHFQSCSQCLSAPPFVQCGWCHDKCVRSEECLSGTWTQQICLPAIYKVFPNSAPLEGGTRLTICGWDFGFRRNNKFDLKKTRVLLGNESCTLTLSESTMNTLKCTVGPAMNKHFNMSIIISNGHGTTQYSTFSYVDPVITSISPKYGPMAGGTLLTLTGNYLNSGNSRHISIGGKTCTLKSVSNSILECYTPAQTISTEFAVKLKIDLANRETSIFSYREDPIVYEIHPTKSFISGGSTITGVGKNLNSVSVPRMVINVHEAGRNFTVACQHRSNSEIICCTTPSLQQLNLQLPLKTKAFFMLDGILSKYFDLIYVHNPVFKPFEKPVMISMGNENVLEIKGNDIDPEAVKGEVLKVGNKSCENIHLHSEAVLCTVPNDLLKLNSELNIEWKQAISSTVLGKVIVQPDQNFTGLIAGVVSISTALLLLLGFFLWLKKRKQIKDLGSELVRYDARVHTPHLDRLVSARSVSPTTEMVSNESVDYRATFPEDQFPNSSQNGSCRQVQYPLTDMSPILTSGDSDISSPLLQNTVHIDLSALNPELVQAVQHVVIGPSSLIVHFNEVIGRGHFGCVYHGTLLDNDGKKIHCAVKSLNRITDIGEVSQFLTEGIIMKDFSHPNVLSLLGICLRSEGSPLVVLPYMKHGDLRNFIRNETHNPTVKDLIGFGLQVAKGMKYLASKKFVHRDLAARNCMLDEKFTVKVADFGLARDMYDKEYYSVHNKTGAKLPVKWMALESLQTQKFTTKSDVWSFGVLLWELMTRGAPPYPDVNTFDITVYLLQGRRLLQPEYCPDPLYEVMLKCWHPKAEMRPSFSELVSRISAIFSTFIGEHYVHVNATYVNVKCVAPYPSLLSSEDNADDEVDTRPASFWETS

Compound	IC50
COC/C=C/c1cnc(-c2cccc(Cc3nn(-c4cnn(C)c4)ccc3=O)c2)nc1 [Example 402, 3-(3-{5-[(1E)-3-methoxyprop-1-en-1-yl]pyrimidin-2-yl}benzyl)-1-(1-methyl-1H-pyrazol-4-yl)pyridazin-4(1H)-one]	< 100 nM
Cn1cc(-n2ccc(=O)c(Cc3cccc(-c4ncc(-c5cncc(F)c5)cn4)c3)n2)cn1 [Example 414, 3-{3-[5-(5-fluoropyridin-3-yl)pyrimidin-2-yl]benzyl}-1-(1-methyl-1H-pyrazol-4-yl)pyridazin-4(1H)-one]	< 100 nM
CCCOC(=O)Nc1cccc(Cc2nn(-c3cc(F)cc(F)c3)ccc2=O)c1 [Example 590, propyl (3-{[1-(3,5-difluorophenyl)-4-oxo-1,4-dihydropyridazin-3-yl]methyl}phenyl)carbamate]	< 100 nM
Cn1cc(-n2ccc(=O)c(Cc3cccc(-c4ncc(N5CCCC(C#N)C5)cn4)c3)n2)cn1 (racemic) [Example 446, rac-1-[2-(3-{[1-(1-methyl-1H-pyrazol-4-yl)-4-oxo-1,4-dihydropyridazin-3-yl]methyl}phenyl)pyrimidin-5-yl]piperidine-3-carbonitrile]	< 100 nM
CN(C)C1CCN(c2cnc(-c3cccc(Cc4nn(-c5cnn(C)c5)ccc4=O)c3)nc2)CC1 [Example 444, 3-(3-{5-[4-(dimethylamino)piperidin-1-yl]pyrimidin-2-yl}benzyl)-1-(1-methyl-1H-pyrazol-4-yl)pyridazin-4(1H)-one]	< 100 nM
Cn1cc(-n2ccc(=O)c(Cc3cccc(-c4ncn(C5COC5)n4)c3)n2)cn1 [Example 707, 1-(1-Methyl-1H-pyrazol-4-yl)-3-{3-[1-(oxetan-3-yl)-1H-1,2,4-triazol-3-yl]benzyl}pyridazin-4(1H)-one]	100 to 1000 nM
CCOc1cnc(-c2cccc(Cc3nn(-c4cccc(C(=O)N(C)C)c4)ccc3=O)c2)nc1 [Example 726, 3-{3-[3-(5-Ethoxypyrimidin-2-yl)benzyl]-4-oxopyridazin-1(4H)-yl}-N,N-dimethylbenzamide]	100 to 1000 nM
Cn1cc(-n2ccc(=O)c(Cc3cccc(-c4ncc(N)cn4)c3)n2)cn1 [Example 183, 3-[3-(5-Aminopyrimidin-2-yl)benzyl]-1-(1-methyl-1H-pyrazol-4-yl)pyridazin-4(1H)-one]	< 100 nM
CCOc1cnc(-c2cccc(C(CC)c3nn(-c4cnn(C)c4)ccc3=O)c2)nc1 (single isomer, unassigned) [Example 205, 3-{(1S or R)-1-[3-(5-ethoxypyrimidin-2-yl)phenyl]propyl}-1-(1-methyl-1H-pyrazol-4-yl)pyridazin-4(1H)-one]	100 to 1000 nM
Cn1cc(-n2ccc(=O)c(Cc3cccc(-c4ncn(CCc5ccccc5)n4)c3)n2)cn1 [Example 715, 1-(1-methyl-1H-pyrazol-4-yl)-3-{3-[1-(2-phenylethyl)-1H-1,2,4-triazol-3-yl]benzyl}pyridazin-4(1H)-one]	100 to 1000 nM
N#Cc1cccc(-n2ccc(=O)c(Cc3cccc(NC(=O)OCCOCC(F)(F)F)c3)n2)c1 [Example 586, 2-(2,2,2-trifluoroethoxy)ethyl (3-{[1-(3-cyanophenyl)-4-oxo-1,4-dihydropyridazin-3-yl]methyl}phenyl)carbamate]	< 100 nM
CN(C)C(=O)CCOC(=O)Nc1cccc(Cc2nn(-c3cnn(C)c3)ccc2=O)c1 [Example 545, 3-(dimethylamino)-3-oxopropyl (3-{[1-(1-methyl-1H-pyrazol-4-yl)-4-oxo-1,4-dihydropyridazin-3-yl]methyl}phenyl)carbamate]	< 100 nM
CCOc1cnc2ccc(C(C)c3nn(-c4cnn(CC)c4)ccc3=O)cc2c1 (single isomer, unassigned) [Example 226, 3-[(1S or R)-1-(3-ethoxyquinolin-6-yl)ethyl]-1-(1-ethyl-1H-pyrazol-4-yl)pyridazin-4(1H)-one]	100 to 1000 nM
Cn1cc(-n2ccc(=O)c(Cc3cccc(-c4ncc(-c5cc[nH]n5)cn4)c3)n2)cn1 [Example 420, 1-(1-methyl-1H-pyrazol-4-yl)-3-{3-[5-(1H-pyrazol-3-yl)pyrimidin-2-yl]benzyl}pyridazin-4(1H)-one]	< 100 nM
CCCOC(=O)Nc1cccc(Cc2nn(-c3cnn(CCOC)c3)ccc2=O)c1 [Example 107, propyl [3-({1-[1-(2-methoxyethyl)-1H-pyrazol-4-yl]-4-oxo-1,4-dihydropyridazin-3-yl}methyl)phenyl]carbamate]	100 to 1000 nM
Cn1cc(-n2ccc(=O)c(Cc3cccc4[nH]ncc34)n2)cn1 [Example 50, 3-(1H-indazol-4-ylmethyl)-1-(1-methyl-1H-pyrazol-4-yl)pyridazin-4(1H)-one]	1000 to 3000 nM
Cn1cc(-n2ccc(=O)c(Cc3cccc(-c4ncc(-c5cnc(N)nc5)cn4)c3)n2)cn1 [Example 417, 3-[3-(2′-amino-5,5′-bipyrimidin-2-yl)benzyl]-1-(1-methyl-1H-pyrazol-4-yl)pyridazin-4(1H)-one]	< 100 nM
Cn1cc(-n2ccc(=O)c(Cc3cccc(-c4ncc(OCC(C)(C)O)cn4)c3)n2)cn1 [Example 358, 3-{3-[5-(2-Hydroxy-2-methylpropoxy)pyrimidin-2-yl]benzyl}-1-(1-methyl-1H-pyrazol-4-yl)pyridazin-4(1H)-one]	< 100 nM
Cn1cc(-n2ccc(=O)c(Cc3cccc(-c4ncc(CN5CCC(N)CC5)cn4)c3)n2)cn1 [compound 434, 3-(3-{5-[(4-aminopiperidin-1-yl)methyl]pyrimidin-2-yl}benzyl)-1-(1-methyl-1H-pyrazol-4-yl)pyridazin-4(1H)-one]	< 100 nM
COCCn1cc(-n2ccc(=O)c(Cc3cccc(NC(=O)OCC(C)C)c3)n2)cn1 [Example 108, 2-methylpropyl [3-({1-[1-(2-methoxyethyl)-1H-pyrazol-4-yl]-4-oxo-1,4-dihydropyridazin-3-yl}methyl)phenyl]carbamate]	< 100 nM

Now from value to compound:

IC50	Compound
< 100 nM	Cn1cc(-c2cnc(-c3cccc(Cc4nn(-c5ccc(F)c(F)c5)ccc4=O)c3)nc2)cn1 [Example 156, 1-(3,4-difluorophenyl)-3-{3-[5-(1-methyl-1H-pyrazol-4-yl)pyrimidin-2-yl]benzyl}pyridazin-4(1H)-one]
< 100 nM	CC(C)COC(=O)Nc1cccc(Cc2nn(-c3cnn(CCN)c3)ccc2=O)c1 [Example 648, 2-methylpropyl [3-({1-[1-(2-aminoethyl)-1H-pyrazol-4-yl]-4-oxo-1,4-dihydropyridazin-3-yl}methyl)phenyl]carbamate]
100 to 1000 nM	COC(C)(C)c1cnc(-c2cccc(Cc3nn(-c4cnn(C)c4)ccc3=O)c2)nc1 [Example 168, 3-{3-[5-(1-methoxy-1-methylethyl)pyrimidin-2-yl]benzyl}-1-(1-methyl-1H-pyrazol-4-yl)pyridazin-4(1H)-one]
100 to 1000 nM	CCOC(C)(C)c1cnc(-c2cccc(Cc3nn(-c4cnn(C)c4)ccc3=O)c2)nc1 [Example 169, 3-{3-[5-(1-ethoxy-1-methylethyl)pyrimidin-2-yl]benzyl}-1-(1-methyl-1H-pyrazol-4-yl)pyridazin-4(1H)-one]
< 100 nM	Cn1cc(-n2ccc(=O)c(Cc3cccc(-c4ncc(-c5ccc(C#N)nc5)cn4)c3)n2)cn1 [Example 413, 5-[2-(3-{[1-(1-methyl-1H-pyrazol-4-yl)-4-oxo-1,4-dihydropyrida-zin-3-yl]methyl}phenyl)pyrimidin-5-yl]pyridine-2-carbonitrile]
< 100 nM	CCOc1cnc(-c2cccc(Cc3nn(-c4cnn(CCO)c4)ccc3=O)c2)nc1 [Example 193, 3-[3-(5-ethoxypyrimidin-2-yl)benzyl]-1-[1-(2-hydroxyethyl)-1H-pyrazol-4-yl]pyridazin-4(1H)-one]
< 100 nM	CCOc1cnc(-c2cccc(Cc3nn(-c4cnn(C5COC5)c4)ccc3=O)c2)nc1 [Example 660, 3-[3-(5-Ethoxypyrimidin-2-yl)benzyl]-1-[1-(oxetan-3-yl)-1H-pyrazol-4-yl]pyridazin-4(1H)-one]
< 100 nM	CC(c1cccc(-c2ncc(-c3cnn(C)c3)cn2)c1)c1nn(-c2cnn(C)c2)ccc1=O (single isomer, unassigned) [Example 233, 1-(1-methyl-1H-pyrazol-4-yl)-3-[(1R or S)-1-{3-[5-(1-methyl-1H-pyrazol-4-yl)pyrimidin-2-yl]phenyl}ethyl]pyridazin-4(1H)-one]
< 100 nM	CCCc1nc(-c2cccc(Cc3nn(-c4cnn(C)c4)ccc3=O)c2)no1 [Example 740, 1-(1-methyl-1H-pyrazol-4-yl)-3-[3-(5-propyl-1,2,4-oxadiazol-3-yl)benzyl]pyridazin-4(1H)-one]
< 100 nM	CC(c1cccc(-c2ncc(C3CC3)cn2)c1)c1nn(-c2cnn(C)c2)ccc1=O (single isomer, unassigned) [Example 406, 3-{(1R or S)-1-[3-(5-cyclopropyl-pyrimidin-2-yl)phenyl]ethyl}-1-(1-methyl-1H-pyrazol-4-yl)pyridazin-4(1H)-one]
100 to 1000 nM	CCCn1cnc(-c2cccc(Cc3nn(-c4cnn(CCOCc5ccccc5)c4)ccc3=O)c2)n1 [Example 89, 1-{1-[2-(benzyloxy)ethyl]-1H-pyrazol-4-yl}-3-[3-(1-propyl-1H-1,2,4-triazol-3-yl)benzyl]pyridazin-4(1H)-one]
< 100 nM	CCn1cc(-n2ccc(=O)c(Cc3cccc(-c4ncc(OCC5CCN(C)CC5)cn4)c3)n2)cn1 [Example 172, 1-(1-ethyl-1H-pyrazol-4-yl)-3-(3-{5-[(1-methylpiperidin-4-yl)methoxy]pyrimidin-2-yl}benzyl)pyridazin-4(1H)-one]
100 to 1000 nM	CCn1cc(-n2ccc(=O)c(C(C)c3cccc(-c4ncc(OC)cn4)c3)n2)cn1 (single isomer, unassigned) [Example 332, 1-(1-ethyl-1H-pyrazol-4-yl)-3-{(1S or R)-1-[3-(5-methoxypyrimidin-2-yl)phenyl]ethyl}pyridazin-4(1H)-one]
< 100 nM	CC(c1cccc(-c2ncc(O[C@@H]3CCNC[C@H]3F)cn2)c1)c1nn(-c2cnn(C)c2)ccc1=O (single isomer, unassigned) [Example 341, 3-{(1R or S)-1-[3-(5-{[(3R or S,4R or S)-3-Fluoropiperidin-4-yl]oxy}pyrimidin-2-yl)phenyl]ethyl}-1-(1-methyl-1H-pyrazol-4-yl)pyridazin-4(1H)-one]
